Data published in patent US20220409620A1, “REDUCING IMMUNOGENICITY TO PEGLOTICASE” (Horizon Pharma Rheumatology LLC, priority 2016, published 2022).
Where two headings read alike, the source gives them in different places.

Tests used:
[1] = test system: patients with refractory chronic gout; settings: cited from earlier work; for patients maintaining a response to pegloticase: another study
[2] = test system: adult patients with uncontrolled gout; assay: Tender and swollen joint counts, open-label study; type: in vivo, human
Protocol: Tender and Swollen Joint Counts: Tender and swollen (excludes hip) joint counts were recorded at the Week −4 or week −6 (prior to the first dose of MTX) Visit during the MTX Run-in Period for the open-label and randomized studies, respectively; prior to pegloticase infusion at the Day 1 and Weeks 14, 24 and 36 Visits, or at the Day 1 and weeks 6, 14, 20, 24, 30, 36, and 44 visits during the Pegloticase+IMM Period for the open-label and randomized studies, respectively; and at the End of Pegloticase Infusions Visit (if applicable) and the Week 52/End of Study/Early Termination Visit and the Post Treatment 3 and 6 month Follow-up visits. Tender and swollen joint counts were assessed by physical examination.

[3] = test system: patients with refractory chronic gout; settings: Phase 2 program; cited from earlier work
[4] = Early Termination Visit, Pegloticase Baseline, mITT Population
[5] = End of Pegloticase Infusions Visit, Pegloticase Baseline, mITT Population
[6] = Week 14, Pegloticase Baseline, mITT Population
[7] = Week 24, Pegloticase Baseline, mITT Population
[8] = Week 36, Pegloticase Baseline, mITT Population
[9] = Week 52/ET, Pegloticase Baseline, mITT Population
[10] = mITT, Early Termination Visit, n=3
[11] = mITT, End of Pegloticase Infusions Visit, n=2

pegloticase
Non-responders ([1]; C0405 and C0406): 49/85 | patients maintaining a response to pegloticase ([1]; antibody titer exceeding 1:2430 at any time during treatment, 7 of 65): 10.8% | patients maintaining a response to pegloticase ([1]; never had an antibody titer above 1:2430, 58/65): 89.2% | Responders (sUA <6 mg/dL for at least 80% of the time during month 6) ([1]; historical Phase 3 monotherapy trials C0405 and C0406, 36/85): 42% | response rate during Month 6 ([1]; pegloticase 8 mg every 2 weeks, phase 3 studies): 43% | proportion of responders during Month 6 ([1]; phase 3 studies): 43.5% | incidence of infusion-related reactions ([1]; pooled Phase 3, 8 mg biweekly dosing): 26% | incidence of infusion-related reactions ([1]; pooled Phase 3, 8 mg every-4-week dosing regimen): 40% | pegloticase-treated patients with IRs in whom loss of response (return to SUA >6 mg/dL) preceded the first IR ([1]; pooled Phase 3, 20/21): 95% | infusion reactions reported ([1]; pre-marketing controlled clinical trials, 8 mg every 2 weeks): 26% | anaphylaxis frequency ([1]; pre-marketing controlled clinical trials): 6.5% | participants with high antibody titers who maintained a response (serum urate <6 mg/dL) ([1]; second study): 1 of 52 participants | participants with high titers who developed IR ([1]; second study): 60% | patients who developed IRs ([1]; titers exceeding 1:2430, 31 of 52): 60% | patients with Cmin below quantitation limit ([1]; without MTX, 63/82): 77% | pegloticase overall Cmin, median ([1]; without MTX, historical monotherapy, BQL = below quantitation limit of 0.6 μg/mL): BQL | pegloticase Cmax, median ([1]; without MTX, historical monotherapy): 1510 ng/mL | Swollen Joint Count, Change from Baseline, Mean (SD) [2, 4]: −3.3 (3.06) | Swollen Joint Count, Change from Baseline, Median [2, 4]: −4.0 | Swollen Joint Count, Observed, Mean (SD) [2, 4]: 0.7 (0.58) | Swollen Joint Count, Observed, Median [2, 4]: 1.0 | Tender Joint Count, Change from Baseline, Mean (SD) [2, 4]: −2.7 (4.16) | Tender Joint Count, Change from Baseline, Median [2, 4]: −4.0 | Tender Joint Count, Observed, Mean (SD) [2, 4]: 7.7 (8.96) | Tender Joint Count, Observed, Median [2, 4]: 3.0 | Swollen Joint Count, Change from Baseline, Mean (SD) [2, 5]: −2.0 (2.83) | Swollen Joint Count, Change from Baseline, Median [2, 5]: −2.0 | Swollen Joint Count, Observed, Mean (SD) [2, 5]: 0.0 (0.00) | Swollen Joint Count, Observed, Median [2, 5]: 0.0 | Tender Joint Count, Change from Baseline, Mean (SD) [2, 5]: −3.0 (5.66) | Tender Joint Count, Change from Baseline, Median [2, 5]: −3.0 | Tender Joint Count, Observed, Mean (SD) [2, 5]: 2.0 (2.83) | Tender Joint Count, Observed, Median [2, 5]: 2.0 | Swollen Joint Count, Change from Baseline, Mean (SD) [2, 6]: −3.6 (7.04) | Swollen Joint Count, Change from Baseline, Median [2, 6]: −2.5 | Swollen Joint Count, Observed, Mean (SD) [2, 6]: 1.7 (3.73) | Swollen Joint Count, Observed, Median [2, 6]: 0.0 | Tender Joint Count, Change from Baseline, Mean (SD) [2, 6]: −5.1 (8.12) | Tender Joint Count, Change from Baseline, Median [2, 6]: −5.0 | Tender Joint Count, Observed, Mean (SD) [2, 6]: 4.6 (6.16) | Tender Joint Count, Observed, Median [2, 6]: 2.0 | Swollen Joint Count, Change from Baseline, Mean (SD) [2, 7]: −5.1 (6.66) | Swollen Joint Count, Change from Baseline, Median [2, 7]: −3.0 | Swollen Joint Count, Observed, Mean (SD) [2, 7]: 0.5 (1.21) | Swollen Joint Count, Observed, Median [2, 7]: 0.0 | Tender Joint Count, Change from Baseline, Mean (SD) [2, 7]: −6.8 (8.16) | Tender Joint Count, Change from Baseline, Median [2, 7]: −4.0 | Tender Joint Count, Observed, Mean (SD) [2, 7]: 2.6 (3.88) | Tender Joint Count, Observed, Median [2, 7]: 0.0 | Swollen Joint Count, Change from Baseline, Mean (SD) [2, 8]: −6.2 (8.15) | Swollen Joint Count, Change from Baseline, Median [2, 8]: −4.0 | Swollen Joint Count, Observed, Mean (SD) [2, 8]: 0.1 (0.33) | Swollen Joint Count, Observed, Median [2, 8]: 0.0 | Tender Joint Count, Change from Baseline, Mean (SD) [2, 8]: −7.8 (8.94) | Tender Joint Count, Change from Baseline, Median [2, 8]: −4.0 | Tender Joint Count, Observed, Mean (SD) [2, 8]: 2.1 (4.54) | Tender Joint Count, Observed, Median [2, 8]: 0.0 | Swollen Joint Count, Change from Baseline, Mean (SD) [2, 9]: −13.0 (13.00) | Swollen Joint Count, Change from Baseline, Median [2, 9]: −13.0 | Swollen Joint Count, Observed, Mean (SD) [2, 9]: 0.0 (0.00) | Swollen Joint Count, Observed, Median [2, 9]: 0.0 | Tender Joint Count, Change from Baseline, Mean (SD) [2, 9]: −16.0 (17.52) | Tender Joint Count, Change from Baseline, Median [2, 9]: −15.0 | Tender Joint Count, Observed, Mean (SD) [2, 9]: 5.3 (3.21) | Tender Joint Count, Observed, Median [2, 9]: 4.0 | Swollen Joint Count, Change from Methotrexate Baseline, Mean (SD) ([2]; mITT, Day 1, n=14): −0.7 (5.21) | Swollen Joint Count, Change from Methotrexate Baseline, Median ([2]; mITT, Day 1, n=14): 0.5 | Swollen Joint Count, Observed, Mean (SD) ([2]; mITT, Day 1, n=14): 5.3 (6.94) | Swollen Joint Count, Observed, Median ([2]; mITT, Day 1, n=14): 3.5 | Tender Joint Count, Change from Methotrexate Baseline, Mean (SD) ([2]; mITT, Day 1, n=14): −1.9 (9.75) | Tender Joint Count, Change from Methotrexate Baseline, Median ([2]; mITT, Day 1, n=14): 0.0 | Tender Joint Count, Observed, Mean (SD) ([2]; mITT, Day 1, n=14): 9.6 (11.03) | Tender Joint Count, Observed, Median ([2]; mITT, Day 1, n=14): 7.0 | Swollen Joint Count, Change from Methotrexate Baseline, Mean (SD) [2, 10]: −1.0 (1.73) | Swollen Joint Count, Change from Methotrexate Baseline, Median [2, 10]: 0.0 | Swollen Joint Count, Observed, Mean (SD) [2, 10]: 0.7 (0.58) | Swollen Joint Count, Observed, Median [2, 10]: 1.0 | Tender Joint Count, Change from Methotrexate Baseline, Mean (SD) [2, 10]: 0.7 (5.13) | Tender Joint Count, Change from Methotrexate Baseline, Median [2, 10]: 2.0 | Tender Joint Count, Observed, Mean (SD) [2, 10]: 7.7 (8.96) | Tender Joint Count, Observed, Median [2, 10]: 3.0 | Swollen Joint Count, Change from Methotrexate Baseline, Mean (SD) [2, 11]: −7.0 (4.24) | Swollen Joint Count, Change from Methotrexate Baseline, Median [2, 11]: −7.0 | Swollen Joint Count, Observed, Mean (SD) [2, 11]: 0.0 (0.00) | Swollen Joint Count, Observed, Median [2, 11]: 0.0 | Tender Joint Count, Change from Methotrexate Baseline, Mean (SD) [2, 11]: −12.0 (7.07) | Tender Joint Count, Change from Methotrexate Baseline, Median [2, 11]: −12.0 | Tender Joint Count, Observed, Mean (SD) [2, 11]: 2.0 (2.83) | Tender Joint Count, Observed, Median [2, 11]: 2.0 | Swollen Joint Count, Change from Methotrexate Baseline, Mean (SD) ([2]; mITT, Week 14, n=14): −4.3 (7.38) | Swollen Joint Count, Change from Methotrexate Baseline, Median ([2]; mITT, Week 14, n=14): −2.0 | Swollen Joint Count, Observed, Mean (SD) ([2]; mITT, Week 14, n=14): 1.7 (3.73) | Swollen Joint Count, Observed, Median ([2]; mITT, Week 14, n=14): 0.0 | Tender Joint Count, Change from Methotrexate Baseline, Mean (SD) ([2]; mITT, Week 14, n=14): −7.0 (14.20) | Tender Joint Count, Change from Methotrexate Baseline, Median ([2]; mITT, Week 14, n=14): 0.0 | Tender Joint Count, Observed, Mean (SD) ([2]; mITT, Week 14, n=14): 4.6 (6.16) | Tender Joint Count, Observed, Median ([2]; mITT, Week 14, n=14): 2.0 | Swollen Joint Count, Change from Methotrexate Baseline, Mean (SD) ([2]; mITT, Week 24, n=11): −6.6 (9.03) | Swollen Joint Count, Change from Methotrexate Baseline, Median ([2]; mITT, Week 24, n=11): −3.0 | Swollen Joint Count, Observed, Mean (SD) ([2]; mITT, Week 24, n=11): 0.5 (1.21) | Swollen Joint Count, Observed, Median ([2]; mITT, Week 24, n=11): 0.0 | Tender Joint Count, Change from Methotrexate Baseline, Mean (SD) ([2]; mITT, Week 24, n=11): −10.2 (14.27) | Tender Joint Count, Change from Methotrexate Baseline, Median ([2]; mITT, Week 24, n=11): −4.0 | Tender Joint Count, Observed, Mean (SD) ([2]; mITT, Week 24, n=11): 2.6 (3.88) | Tender Joint Count, Observed, Median ([2]; mITT, Week 24, n=11): 0.0 | Swollen Joint Count, Change from Methotrexate Baseline, Mean (SD) ([2]; mITT, Week 36, n=9): −7.8 (10.81) | Swollen Joint Count, Change from Methotrexate Baseline, Median ([2]; mITT, Week 36, n=9): −3.0 | Swollen Joint Count, Observed, Mean (SD) ([2]; mITT, Week 36, n=9): 0.1 (0.33) | Swollen Joint Count, Observed, Median ([2]; mITT, Week 36, n=9): 0.0 | Tender Joint Count, Change from Methotrexate Baseline, Mean (SD) ([2]; mITT, Week 36, n=9): −12.3 (14.56) | Tender Joint Count, Change from Methotrexate Baseline, Median ([2]; mITT, Week 36, n=9): −7.0 | Tender Joint Count, Observed, Mean (SD) ([2]; mITT, Week 36, n=9): 2.1 (4.54) | Tender Joint Count, Observed, Median ([2]; mITT, Week 36, n=9): 0.0 | Swollen Joint Count, Change from Methotrexate Baseline, Mean (SD) ([2]; mITT, Week 52/ET, n=3): −21.0 (9.64) | Swollen Joint Count, Change from Methotrexate Baseline, Median ([2]; mITT, Week 52/ET, n=3): −25.0 | Swollen Joint Count, Observed, Mean (SD) ([2]; mITT, Week 52/ET, n=3): 0.0 (0.00) | Swollen Joint Count, Observed, Median ([2]; mITT, Week 52/ET, n=3): 0.0 | Tender Joint Count, Change from Methotrexate Baseline, Mean (SD) ([2]; mITT, Week 52/ET, n=3): −24.0 (21.38) | Tender Joint Count, Change from Methotrexate Baseline, Median ([2]; mITT, Week 52/ET, n=3): −17.0 | Tender Joint Count, Observed, Mean (SD) ([2]; mITT, Week 52/ET, n=3): 5.3 (3.21) | Tender Joint Count, Observed, Median ([2]; mITT, Week 52/ET, n=3): 4.0 | dose-response plateau dose [3]: 12 mg | minimally effective dose [3]: 4 mg | safe and optimally effective dose [3]: 8 mg
